From ChEMBL document CHEMBL1201862, “PubChem BioAssay data set” (2004)
Counter-ions that a name gives are not always drawn.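 Values below derive from 48-hour exposures of cells grown in 96-well plates, with endpoints linearly interpolated between the two concentrations bracketing the appropriate inhibition level. GI50 marks 50% less growth.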 Calls of active or inactive are those of the source. Rule as the data show it: active = GI50 up to about 1.1 µM and inactive = higher.

How the values were obtained:
Test in all cases: DTP human tumour cell line panel, 48 h
[1] = test system: A549
[2] = test system: ACHN
[3] = test system: BT-549
[4] = test system: CAKI-1
[5] = test system: CCRF-CEM
[6] = test system: COLO 205
[7] = test system: DU-145
[8] = test system: EKVX
[9] = test system: HCC 2998
[10] = test system: HCT-116
[11] = test system: HCT-15
[12] = test system: HL-60
[13] = test system: HOP-62
[14] = test system: HOP-92
[15] = test system: HT-29
[16] = test system: K562
[17] = test system: KM12
[18] = test system: LOX IMVI
[19] = test system: M14
[20] = test system: MCF7
[21] = test system: MDA-MB-231
[22] = test system: MDA-MB-435
[23] = test system: MDA-N
[24] = test system: MOLT-4
[25] = test system: Malme-3M
[26] = test system: NCI-H23
[27] = test system: NCI-H460
[28] = test system: NCI/ADR-RES
[29] = test system: OVCAR-3
[30] = test system: OVCAR-4
[31] = test system: OVCAR-5
[32] = test system: OVCAR-8
[33] = test system: PC-3
[34] = test system: RPMI-8226
[35] = test system: SF-295
[36] = test system: SK-MEL-28
[37] = test system: SK-MEL-2
[38] = test system: SK-MEL-5
[39] = test system: SN12C
[40] = test system: SNB-19
[41] = test system: SR
[42] = test system: TK-10
[43] = test system: U-251
[44] = test system: UACC-257
[45] = test system: UO-31
[46] = test system: 786-0
[47] = test system: A498
[48] = test system: IGROV-1
[49] = test system: NCI-H522
[50] = test system: RXF 393
[51] = test system: SF-268
[52] = test system: SF-539
[53] = test system: SK-OV-3
[54] = test system: SNB-75
[55] = test system: SW-620
[56] = test system: UACC-62
[57] = test system: NCI-H226
[58] = test system: T47D

`O=c1[nH]nc(NCc2ccccc2)c2nnn(Cc3ccccc3)c12` was tested, and the GI50 [1] was > 100 µM (inactive), the GI50 [2] was > 100 µM (inactive) and the GI50 [3] was > 100 µM (inactive). The GI50 [4] was > 100 µM (inactive), the GI50 [5] was > 100 µM (inactive) and the GI50 [6] was > 100 µM (inactive). The GI50 [7] was > 100 µM (inactive), the GI50 [8] was > 100 µM (inactive) and the GI50 [9] was > 100 µM (inactive). For the same compound, the GI50 [10] was > 100 µM (inactive), the GI50 [11] was greater than 100 µM and the GI50 [12] was > 100 µM (inactive). The GI50 [13] was > 100 µM (inactive), the GI50 [14] was > 100 µM (inactive) and the GI50 [15] was > 100 µM (inactive). The GI50 [16] was > 100 µM (inactive), the GI50 [17] was > 100 µM (inactive) and the GI50 [18] was > 100 µM (inactive). The GI50 [19] was > 100 µM (inactive), the GI50 [20] was > 100 µM (inactive) and the GI50 [21] was > 100 µM (inactive). For the same compound, the GI50 [22] was > 100 µM (inactive), the GI50 [23] was > 100 µM (inactive) and the GI50 [24] was > 100 µM (inactive). For the same compound, the GI50 [25] was > 100 µM (inactive), the GI50 [26] was > 100 µM (inactive) and the GI50 [27] was > 100 µM (inactive). The GI50 [28] was > 100 µM (inactive), the GI50 [29] was > 100 µM (inactive) and the GI50 [30] was > 100 µM (inactive). For the same compound, the GI50 [31] was > 100 µM (inactive), the GI50 [32] was > 100 µM (inactive) and the GI50 [33] was > 100 µM (inactive). The GI50 [34] was > 100 µM (inactive), the GI50 [35] was > 100 µM (inactive) and the GI50 [36] was > 100 µM (inactive). For the same compound, the GI50 [37] was > 100 µM (inactive), the GI50 [38] was > 100 µM (inactive) and the GI50 [39] was > 100 µM (inactive). The GI50 [40] was > 100 µM (inactive), the GI50 [41] was > 100 µM (inactive) and the GI50 [42] was > 100 µM (inactive). The GI50 [43] was > 100 µM (inactive), the GI50 [44] was > 100 µM (inactive) and the GI50 [45] was > 100 µM (inactive).

With `CCOC(=O)/C(=C\NC#N)c1nc2ccccc2[nH]1` the GI50 [46] was > 100 µM (inactive), the GI50 [47] was > 100 µM (inactive) and the GI50 [1] was > 100 µM (inactive). The GI50 [2] was 30.2 µM (inactive), the GI50 [3] was > 100 µM (inactive) and the GI50 [4] was > 100 µM (inactive). The GI50 [6] was > 100 µM (inactive), the GI50 [7] was > 100 µM (inactive) and the GI50 [8] was > 100 µM (inactive). The GI50 [9] was > 100 µM (inactive), the GI50 [10] was > 100 µM (inactive) and the GI50 [11] was 91 µM. For the same compound, the GI50 [12] was 45.5 µM (inactive), the GI50 [13] was > 100 µM (inactive) and the GI50 [14] was > 100 µM (inactive). For the same compound, the GI50 [15] was > 100 µM (inactive), the GI50 [48] was 58.9 µM (inactive) and the GI50 [17] was > 100 µM (inactive). The GI50 [18] was > 100 µM (inactive), the GI50 [19] was > 100 µM (inactive) and the GI50 [20] was > 100 µM (inactive). The GI50 [22] was > 100 µM (inactive), the GI50 [23] was > 100 µM (inactive) and the GI50 [24] was 5.75 µM (inactive). The GI50 [25] was > 100 µM (inactive), the GI50 [26] was > 100 µM (inactive) and the GI50 [27] was 60.5 µM (inactive). The GI50 [49] was 68.5 µM (inactive), the GI50 [28] was > 100 µM (inactive) and the GI50 [29] was > 100 µM (inactive). For the same compound, the GI50 [30] was > 100 µM (inactive), the GI50 [31] was > 100 µM (inactive) and the GI50 [32] was > 100 µM (inactive). For the same compound, the GI50 [34] was 78.5 µM (inactive), the GI50 [50] was > 100 µM (inactive) and the GI50 [51] was 72.9 µM (inactive). The GI50 [35] was > 100 µM (inactive), the GI50 [52] was > 100 µM (inactive) and the GI50 [36] was > 100 µM (inactive). The GI50 [38] was 65.2 µM (inactive), the GI50 [53] was > 100 µM (inactive) and the GI50 [39] was > 100 µM (inactive). The GI50 [40] was > 100 µM (inactive), the GI50 [54] was > 100 µM (inactive) and the GI50 [41] was 52.7 µM (inactive). The GI50 [55] was > 100 µM (inactive), the GI50 [42] was 85.5 µM (inactive) and the GI50 [44] was > 100 µM (inactive). For the same compound, the GI50 [56] was 85.1 µM (inactive) and the GI50 [45] was 1.28 µM (inactive).

`NCCCCNCCCN` [SPERMIDINE TRIHYDROCHLORIDE] was tested, and the GI50 [46] was > 100 µM (inactive), the GI50 [47] was > 100 µM (inactive) and the GI50 [1] was > 100 µM (inactive). The GI50 [2] was > 100 µM (inactive), the GI50 [3] was > 100 µM (inactive) and the GI50 [4] was 1.71 µM (inactive). The GI50 [6] was > 100 µM (inactive), the GI50 [7] was > 100 µM (inactive) and the GI50 [8] was > 100 µM (inactive). The GI50 [9] was > 100 µM (inactive), the GI50 [10] was > 100 µM (inactive) and the GI50 [11] was greater than 100 µM. For the same compound, the GI50 [12] was > 100 µM (inactive), the GI50 [13] was > 100 µM (inactive) and the GI50 [14] was > 100 µM (inactive). The GI50 [15] was > 100 µM (inactive), the GI50 [48] was > 100 µM (inactive) and the GI50 [16] was 67.8 µM (inactive). For the same compound, the GI50 [17] was > 100 µM (inactive), the GI50 [18] was > 100 µM (inactive) and the GI50 [19] was > 100 µM (inactive). For the same compound, the GI50 [20] was 72.8 µM (inactive), the GI50 [21] was > 100 µM (inactive) and the GI50 [22] was 27.4 µM (inactive). The GI50 [24] was 51.3 µM (inactive), the GI50 [25] was > 100 µM (inactive) and the GI50 [57] was > 100 µM (inactive). The GI50 [26] was > 100 µM (inactive), the GI50 [27] was > 100 µM (inactive) and the GI50 [49] was 97.1 µM (inactive). The GI50 [28] was > 100 µM (inactive), the GI50 [29] was > 100 µM (inactive) and the GI50 [30] was 16.7 µM (inactive). For the same compound, the GI50 [31] was > 100 µM (inactive), the GI50 [32] was > 100 µM (inactive) and the GI50 [33] was > 100 µM (inactive). For the same compound, the GI50 [50] was > 100 µM (inactive), the GI50 [51] was > 100 µM (inactive) and the GI50 [35] was > 100 µM (inactive). For the same compound, the GI50 [52] was > 100 µM (inactive), the GI50 [36] was > 100 µM (inactive) and the GI50 [37] was > 100 µM (inactive). For the same compound, the GI50 [38] was > 100 µM (inactive), the GI50 [53] was > 100 µM (inactive) and the GI50 [40] was > 100 µM (inactive). For the same compound, the GI50 [54] was > 100 µM (inactive), the GI50 [41] was > 100 µM (inactive) and the GI50 [55] was > 100 µM (inactive). For the same compound, the GI50 [58] was > 100 µM (inactive), the GI50 [42] was > 100 µM (inactive) and the GI50 [43] was > 100 µM (inactive). For the same compound, the GI50 [44] was > 100 µM (inactive), the GI50 [56] was > 100 µM (inactive) and the GI50 [45] was > 100 µM (inactive).
